Data reported in patent US20090028842A1, “Dekkera/Brettanomyces Cytosine Deaminases And Their Use” (ZGene A/S, priority 2005, published 2009).

Key:
MCF7 = test: XTT cell proliferation assay, untransduced MCF7; assay type: cell-based; settings: Homo sapiens; untransduced MCF7, 96-120 hours of drug exposure
Protocol: (§1) Cancer cells were purchased from the American Type Culture Collection. Cells were cultured in RPMI, E-MEM or D-MEM with 10% (v/v) Australian originated foetal calf serum and 1 ml/l of gentamicin. Cells were grown at 37° C. in a humidified incubator with a gas phase of 5% CO2. The cells were transduced with the retrovirus containing medium mixed with 5 μg/ml of Polybrene, incubated for 48 hours and then cultured continuously for 3 weeks in the presence of 300-400 μg/ml Genetecin® (Life Technologies Inc.).
(§2) Cells were plated at densities range of 1.500-3.500 cells/well in 96-well plates coated with poly-L-lysine (Sigma). 5-FC was added after 24 hours of incubation. Each experiment was performed in four replicates. Cell survival was assayed after 96-120 hours of drug exposure by XTT cell proliferation kit (Roche). The data was corrected for background media-only absorbance where after the 50% cell killing drug concentration (IC50 value) was calculated using SigmaPlot® (SPSS Science, Dyrberg Trading, Denmark).

U87MG = test: XTT cell proliferation assay, untransduced U87MG; assay type: cell-based; settings: Homo sapiens, U-87 MG, 96-120 hours of drug exposure
Protocol: as §1, §2

PANC-1 = test: XTT cell proliferation assay, untransduced PANC-1; assay type: cell-based; settings: Homo sapiens; untransduced PANC-1, 96-120 hours of drug exposure
Protocol: as §1, §2

[1] = tested on: Dekkera/Brettanomyces strains; test: Growth of various Dekkera/Brettanomyces strains on plates containing 5-FC; assay type: cell-based; settings: all tested Dekkera and Brettanomyces species, after 5 days
Protocol: (§3) The yeast strains used in this work are: Dekkera bruxellensis (Y872, CBS 1943), D. bruxellensis (Y879, CBS 2499), D. bruxellensis (CBS 4480, CBS 4481), D. anomala (CBS 76, CBS 77, CBS 1938, CBS 1947), Brettanomyces nanus (CBS 1945), B. nanus (CBS 1955, CBS 1956), M. reukauffii (CBS 2266), B. custersianus (CBS 4805), B. naardensis (CBS 6042), S. kluyveri Y057 (NRRL Y-12651), and S. cerevisiae Y051 (NRRL Y-12632). Yeast strains were grown at 25° in YPD medium (1% yeast extract, 2% bacto peptone, 2% glucose) or in defined minimal (SD) medium (1% succinic acid, 0.6% NaOH, 2% glucose, 0.67% yeast nitrogen base without amino acids from Difco). When indicated, (NH4)2SO4 was replaced with 0.1% cytosine as the sole nitrogen source giving N-minimal medium. The growth rate was determined in liquid medium by following the optical density at 600 nm. The E. coli strain TOP10 (Invitrogen) was used for plasmid amplification. Bacteria were grown at […] in Luria-Bertani medium supplemented with 100 mg/l of ampicillin for selection. The E. coli BL21-DE3 (Invitrogen) strain was used for heterologous protein expression.
(§4) In FIG. 2 it can be seen that all the tested Dekkera/Brettanomyces strains are particularly susceptible to 5-FC, as growth is inhibited at 0.1 or at least at 0.36 μM 5.FC. For comparison, S. cerevisiae (FIG. 1) and M. reukauffii (FIG. 2) strains are included.

D. bruxellensis = test: Growth of D. bruxellensis on plates containing 5-FC; assay type: cell-based, Dekkera bruxellensis; settings: after 5 days
Protocol: as §3
(§5) The majority of yeast can utilize cytosine as sole source of nitrogen by using CD to cleave cytosine to ammonia (a source of nitrogen) and uracil. To test for the ability of Dekkera yeast for growth on cytosine, Y872 was spotted on N-minimal media containing 0.1% cytosine. […]

[2] = tested on: MCF7 cell line transduced with pLCXSN; test: XTT cell proliferation assay, MCF7 transduced with empty vector pLCXSN; assay type: cell-based; settings: Homo sapiens
Source text: (§6) ORFs were amplified with Accuzyme DNA polymerase (Bioline) using primers with designed flanking restriction enzyme sites and containing Kozak sequence at 5′ end. D. bruxellensis CD constructs were cloned into the retrovirus vector pLCXSN. The vector is based on pLXSN (Clontech) to which the CMV promoter has been cloned into the polylinker site to form pLCXSN. The constructs obtained was named DbCDCvir (PZG917). pLCXSN alone was used as a control. The plasmids were purified using the Qiagen plasmid kit (QIAGEN) and DNA sequences were verified by DNA sequence determination. HE 293 T packaging cells (ATCC CRL-11268) were cultured at 37° C. in OPTIMEM 1 medium (Life Technologies, Inc.) The constructed retrovirus vectors were transfected into the packaging cells using LipofectAMINE PLUS (Life Technologies, Inc.) according to the protocol provided by the supplier. The medium from the transfected cells was collected 48 hours after transfection, filtered through a 0.45 μm filter, pelleted by ultracentrifugation (50.000×g, 90 minutes at 4° C.) and dissolved in D-MEM.
Cancer cells were purchased from the American Type Culture Collection. Cells were cultured in RPMI, E-MEM or D-MEM with 10% (v/v) Australian originated foetal calf serum and 1 ml/l of gentamicin. Cells were grown at 37° C. in a humidified incubator with a gas phase of 5% CO2. […]

HT-29 = test: XTT cell proliferation assay, untransduced HT-29; assay type: cell-based; settings: Homo sapiens; untransduced HT-29, 96-120 hours of drug exposure
Protocol: as §1, §2

[3] = tested on: MCF7 cell line transduced with Db CD gene; test: XTT cell proliferation assay, MCF7 transduced with D. bruxellensis cytosine deaminase; assay type: cell-based, human
Source text: as §6, §1, §2

Metschnikowia reukauffii = test: Growth of control strain Metschnikowia reukauffii on plates containing 5-FC; assay type: cell-based; settings: 0.1 or 0.36 μM 5-FC, 5 days
Protocol: as §3, §4

S. cerevisiae = test: Growth of S. cerevisiae on plates containing 5-FC; assay type: cell-based, Saccharomyces cerevisiae
Protocol: as §3, §5

[4] = tested on: Dekkera/Brettanomyces yeasts; test: Sensitivity of Dekkera/Brettanomyces yeasts to G418; assay type: cell-based; settings: addition of 200 μg/ml; almost all yeasts tested
Source text: There are no suitable auxotrophic markers or efficient transformation system to work with these yeasts. […] Using degenerative primers described in this study it was not possible to amplify CD genes from D. anomala, B. nanus, B. naardenensis and B. custersianus probably due to presence of introns in these genes. Therefore we designed a selection system based on Dekkera bruxellensis CD1 promoter and G418 resistance marker coding for 3′aminoglycoside-phosphotransferase. G418 is a ribosomal inhibitor in many eukaryotic cells but many yeast species are not sensitive to G418. However, almost all Dekkera/Brettanomyces yeasts tested were sensitive to addition of 200 μg/ml. Since G418 cannot be used in medium with high salt concentration (like SD medium) use of CD1 promoter which had activity in YPD medium (low salt) will permit expression of G418 gene and ultimately lead to resistance to G418 and enable direct selection of yeast colonies containing this gene. Cloning strategy was as described: pYES2 vector was cut with AgeI/HindIII restriction enzymes and fragment of app. 440 bp containing GAL promoter was removed. Promoter of 1075 bp from Y872 CD1 gene was cloned into AgeI/HindIII site resulting in pDbCD1p plasmid. The ORF from G418 gene (Acc. nr. S78175) was cloned under control of CD1 promoter into BamHI/EcoRI site. […]

[5] = CD activities with purified his-tagged proteins; assay type: biochemical; settings: purified his-tagged protein, 37° C., cytosine 500 μM, triplicates, mean with standard deviation
Protocol: For recombinant protein expression, E. coli cells were grown to a density of A600 nm=0.5-0.6 in LB medium supplemented with 100 μg/ml ampicillin, and the expression was induced with 10 μM IPTG for 8 h at 25° C. The cells were harvested by centrifugation, and the pellet was resuspended in 25 ml ice-cold binding buffer A […] (50 mM sodium phosphate pH 8.0; 300 mM NaCl; 10% glycerol; 25 mM imidazole) containing protease inhibitor cocktail (Complete™-EDTA free from Roche Diagnostics). The cells were homogenized using a French Press, subjected to centrifugation at 12,000×g for 30 minutes (4° C.), filtered through a […] Whatman glass microfiber filter and a […] cellulose acetate filter, and loaded onto a 5 ml Ni^2+-NTA column (Qiagen). […]
Bacteria or cell lines were grown as described, harvested and stored at −80° C. until activity testing. […] Cytosine deaminase activities were determined spectrophotometrically by monitoring the absorbance decrease at 286 nm (Δε286=−0.68 mM^−1 cm^−1) resulting from the deamination of cytosine to uracil. […]
To characterize the substrate specificities of yeast CDs, purified proteins were measured at 37° C. and fixed cytosine concentration and assays was performed as described in Example 1 (Enzyme assays) (Table 3).

[6] = assay type: physicochemical
Protocol: Purified and his-tagged CD from D. bruxellensis and S. cerevisiae CD were assayed after different periods of storage at 50° C. and 37° C. (FIGS. 8a and 8b). Indeed, D. bruxellensis CD was extremely stable at 50° C. when compared to S. cerevisiae CD which lost all activity after only 4 minutes. Half life for D. bruxellensis CD at 50° C. was app. 3 hours (FIG. 8a). […] It should be observed that the temperature stability of the proteins without his-tags could be different.

Nc1nc(=O)[nH]cc1F [5-FC, 5-fluorocytosine]
IC50 (MCF7): 2000 to 5000 µM | IC50 (U87MG): 2000 to 5000 µM | IC50 (PANC-1): 2000 to 5000 µM | 5-FC concentration at which growth inhibition was observed [1]: ≤ 0.36 µM | 5-FC concentration at which growth inhibition was observed (D. bruxellensis): 0.1 µM | 5-FC concentration at which there was no visible growth (D. bruxellensis): 0.36 µM | IC50 [2]: 9290 µM | IC50 (HT-29): 2000 to 5000 µM | IC50 ([3]; Homo sapiens, MCF7, MCF7 transduced with D. bruxellensis cytosine deaminase): 2400 µM | IC50 ([3]; MCF7 transduced with D. bruxellensis cytosine deaminase): 2440 µM | sensitivity increase towards 5-FC ([3]; MCF7 with Db CD versus empty vector): 4 fold | Growth on plates with 5-FC (Metschnikowia reukauffii): not inhibited | Growth on plates with 5-FC (S. cerevisiae; S. cerevisiae control strain, 0.1 or 0.36 μM 5-FC, 5 days): not inhibited | 5-FC concentration at which growth was first inhibited (S. cerevisiae; S. cerevisiae, plates, after 5 days): 1 µM

CN[C@@H]1[C@@H](O)[C@@H](O[C@@H]2[C@@H](O)[C@H](O[C@H]3O[C@H]([C@@H](C)O)[C@@H](O)[C@H](O)[C@H]3N)[C@@H](N)C[C@H]2N)OC[C@]1(C)O [G418]
Sensitivity to G418 [4]: sensitive

B1: Db CD (PZG893): cytosine deaminase from Dekkera bruxellensis (SEQ ID NO 2), recombinant his-tagged protein (protein, listed as Dekkera bruxellensis)
chain: MTFDDKLGMQVAFEEAKKGFEEGGVPIGACLLTEEGKVIGRGHNMRVQKSSATLHGETSCFENAGRLPASVYKKCTLYTTLSPCSMCSGAALLFKIPRIVLGENETFVGAEKWLESNGVEVVNVHNKECKNLMDRFIKEKPEVWNEDIGE
modifications: His tag
CD activity, Cytosine [5]: 176.5 ± 5.3 U/mg/min | Half life [6]: ~3 h | Stability compared to S. cerevisiae CD [6]: more stable
